By IC50 is commonly meant the concentration needed to halve the response being measured.

For nine compounds, IC50 results are on record in US11254668B2, “Pyrazolo[1,5-A]pyrazin-4-yl and related derivatives” (Pfizer Inc., priority 2017, dated 2022).

Common to all, as to format: biochemical
One assay addresses JAK2 (Homo sapiens (Human), UniProt O60674). The assay can be described thus: JAK Caliper Enzyme Assay at 1 mM ATP, JAK2. In outline:
(§1)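 Inhibition is measured as reduced phosphorylation of a synthetic peptide by the recombinant human kinase domain at 1 mM ATP. Conditions give 20–30% conversion at room temperature before EDTA quench, and on-chip separation of labelled substrate and product yields percent conversion for dose–response plotting.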

For the next assay, the target named is JAK3 (Homo sapiens (Human), UniProt P52333). The assay can be described thus: JAK Caliper Enzyme Assay at 1 mM ATP, JAK3. In short, it runs like this: (§2)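 Recombinant human kinase domains phosphorylated a fluorescent synthetic peptide at room temperature, with enzyme level and time tuned to 20% to 30% conversion; EDTA stop buffer ended reactions. Mobility-shift separation gave percent product from peak heights, normalised to DMSO and positive controls, and IC50s came from concentration–effect curves.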
JAK3, sequence (P52333 822-1111): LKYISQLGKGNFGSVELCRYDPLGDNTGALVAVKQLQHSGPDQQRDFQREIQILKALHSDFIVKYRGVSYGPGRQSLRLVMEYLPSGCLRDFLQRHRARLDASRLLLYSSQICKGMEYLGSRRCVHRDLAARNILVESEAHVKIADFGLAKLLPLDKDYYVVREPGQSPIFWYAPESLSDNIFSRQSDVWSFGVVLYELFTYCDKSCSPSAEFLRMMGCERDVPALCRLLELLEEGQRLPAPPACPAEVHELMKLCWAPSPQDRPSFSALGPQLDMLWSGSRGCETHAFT

The next assay has as its target JAK1 (Homo sapiens (Human), UniProt P23458). Kind of assay: JAK Caliper Enzyme Assay at 1 mM ATP, JAK1. In short, it runs like this:
as §2

In another assay the target is TYK2 (Homo sapiens (Human), UniProt P29597). The assay can be described thus: JAK Caliper Enzyme Assay at 1 mM ATP, TYK2. In outline:
as §1

JAK2, sequence (O60674 849-1124): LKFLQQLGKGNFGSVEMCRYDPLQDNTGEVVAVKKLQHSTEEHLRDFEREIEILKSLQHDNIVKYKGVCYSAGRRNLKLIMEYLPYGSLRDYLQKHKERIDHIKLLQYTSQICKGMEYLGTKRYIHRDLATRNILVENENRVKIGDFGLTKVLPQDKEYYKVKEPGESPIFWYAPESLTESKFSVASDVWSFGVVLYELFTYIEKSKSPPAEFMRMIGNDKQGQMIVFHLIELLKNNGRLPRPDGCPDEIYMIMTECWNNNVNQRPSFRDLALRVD
TYK2, sequence (P29597 897-1176): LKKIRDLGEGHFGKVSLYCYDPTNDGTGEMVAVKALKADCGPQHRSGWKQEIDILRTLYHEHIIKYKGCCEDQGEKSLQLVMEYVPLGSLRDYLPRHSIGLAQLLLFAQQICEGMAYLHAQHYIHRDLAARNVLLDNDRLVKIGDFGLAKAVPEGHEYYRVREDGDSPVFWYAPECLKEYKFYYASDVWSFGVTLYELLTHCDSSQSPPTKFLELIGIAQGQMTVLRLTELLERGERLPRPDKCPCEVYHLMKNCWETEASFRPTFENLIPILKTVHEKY
JAK1, sequence (P23458 875-1153): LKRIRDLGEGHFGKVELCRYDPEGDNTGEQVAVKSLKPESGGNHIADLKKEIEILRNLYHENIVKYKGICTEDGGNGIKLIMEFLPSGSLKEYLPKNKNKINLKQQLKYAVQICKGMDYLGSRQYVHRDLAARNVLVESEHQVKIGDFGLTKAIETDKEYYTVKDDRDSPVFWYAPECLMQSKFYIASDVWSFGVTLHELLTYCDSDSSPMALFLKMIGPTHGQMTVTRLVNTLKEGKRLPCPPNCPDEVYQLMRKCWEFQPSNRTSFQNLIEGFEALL

With `Cc1cc(-c2nc(-c3cn[nH]c3N)cc3ncccc23)nn1[C@]1(CC#N)C[C@@H](C#N)C1` [Example 275, trans-3-{3-[7-(5-amino-1H-pyrazol-4-yl)-1,6-naphthyridin-5-yl]-5-methyl-1H-pyrazol-1-yl}-3-(cyanomethyl)cyclobutanecarbonitrile], the IC50 on JAK2 stood at 20 nM; at JAK3 it was 2650 nM; at JAK1 it was 38 nM; on TYK2 it was 13 nM.

Turning to `Cc1cn([C@]2(CC#N)C[C@@H](C#N)C2)nc1-c1nc(-c2cn[nH]c2N)cc2ncccc12` [Example 276, trans-3-{3-[7-(5-amino-1H-pyrazol-4-yl)-1,6-naphthyridin-5-yl]-4-methyl-1H-pyrazol-1-yl}-3-(cyanomethyl)cyclobutanecarbonitrile], the IC50 at JAK2 was 947 nM; at JAK3, greater than 10000 nM; on JAK1 it was 3480 nM; at TYK2, 144 nM.

`Cc1cn([C@]2(CC#N)C[C@H](C#N)C2)nc1-c1nc(-c2cc(N)n(C)n2)cc2ncccc12` [Example 277, cis-3-{3-[7-(5-amino-1-methyl-1H-pyrazol-3-yl)-1,6-naphthyridin-5-yl]-4-methyl-1H-pyrazol-1-yl}-3-(cyanomethyl)cyclobutanecarbonitrile]: the IC50 on JAK2 was 2300 nM; on JAK3, greater than 10000 nM; at JAK1, greater than 10000 nM; on TYK2 it was 675 nM.

For `Cc1cn([C@]2(CC#N)C[C@@H](C#N)C2)nc1-c1nc(-c2cc(N)n(C)n2)cc2ncccc12` [Example 278, trans-3-{3-[7-(5-amino-1-methyl-1H-pyrazol-3-yl)-1,6-naphthyridin-5-yl]-4-methyl-1H-pyrazol-1-yl}-3-(cyanomethyl)cyclobutanecarbonitrile], the IC50 is 9840 nM on JAK2, greater than 10000 nM on JAK3, greater than 10000 nM on JAK1 and 1430 nM at TYK2.

As to `Cn1cc(-c2cc3ncccc3c(-n3ccc(C4(CC#N)CN(CC(F)(F)F)C4)n3)n2)cn1` [Example 279, [3-{1-[7-(1-methyl-1H-pyrazol-4-yl)-1,6-naphthyridin-5-yl]-1H-pyrazol-3-yl}-1-(2,2,2-trifluoroethyl)azetidin-3-yl]acetonitrile], the IC50 was 686 nM on JAK2, greater than 10000 nM on JAK3, 6340 nM on JAK1 and 194 nM on TYK2.

For the compound `Cn1cc(-c2cc3ncccc3c(-c3cn(C4(CC#N)CN(CC(F)(F)F)C4)nn3)n2)cn1` [Example 280, [3-{4-[7-(1-methyl-1H-pyrazol-4-yl)-1,6-naphthyridin-5-yl]-1H-1,2,3-triazol-1-yl}-1-(2,2,2-trifluoroethyl)azetidin-3-yl]acetonitrile], the IC50 on JAK2 came out at 28 nM; on JAK3, 3260 nM; at JAK1, 182 nM; on TYK2 it was 9 nM.

Take `CS(=O)(=O)N1CC(CC#N)(n2ncc(-c3nc(-c4cc[nH]n4)cc4ncccc34)n2)C1` [Example 281, [1-(methylsulfonyl)-3-{4-[7-(1H-pyrazol-3-yl)-1,6-naphthyridin-5-yl]-2H-1,2,3-triazol-2-yl}azetidin-3-yl]acetonitrile]: the half-inhibitory concentration (IC50) at JAK2 was 90 nM; on JAK3, greater than 10000 nM; on JAK1, 179 nM; on TYK2, 16 nM.

With `Cn1cc(-c2cc3ncccc3c(-c3cc(C4(CC#N)CN(CC#N)C4)no3)n2)cn1` [Example 282], the IC50 on JAK2 was 45 nM; on JAK3, greater than 10000 nM; on JAK1, 219 nM; at TYK2, 60 nM.

Consider `CS(=O)(=O)N1CC(CC#N)(n2ccc(-c3cc(-c4cc[nH]n4)cc4ncccc34)n2)C1` [Example 283, [1-(methylsulfonyl)-3-{3-[7-(1H-pyrazol-3-yl)quinolin-5-yl]-1H-pyrazol-1-yl}azetidin-3-yl]acetonitrile], for which the IC50 is 2000 nM on JAK2, greater than 10000 nM on JAK3, 5670 nM on JAK1 and 176 nM at TYK2.
